# Results published in patent publication US5726155A, “Regulation of oxidative burst using LMWG-derived peptides and analogs” (The Scripps Research Institute, priority 1993, dated 1998).
# Where no end group is shown, it is not given here.
# How the values were obtained:
# [1] = target: T1, NADPH oxidase (Homo sapiens, UniProt P04839+P13498+P14598+P19878); assay: cell-free NADPH oxidase assay (O2- production), inhibition by peptides; assay type: biochemical; conditions: for Inhibitory Activity: Table 3, peptide incubated five minutes before 90 μM SDS or 100 μM arachidonic acid; for Percent Inhibition: cell-free system
# T1 construct: 4×10^5 cell equivalents (cell eq) of neutrophil membranes; of neutrophil cytosol, or (2) 100 nM each of baculovirus recombinant p47-phox and p67-phox; from tissue; host or cells: neutrophil membranes and cytosol (human neutrophils, leukapheresis or blood)
# Protocol: Production of O2^- by NADPH oxidase may be monitored in a cell-free system at 25° C. by following the superoxide dismutase (SOD)-inhibitable reduction of cytochrome c at […], as described in Curnutte, et al., PNAS USA 86: 825-829 (1989). The method may be described essentially as follows.
# Activation of the dormant respiratory burst oxidase in a cell-free system by SDS in the presence of cytosol (or partially-purified cytosol factor components) was monitored by measuring O2^- production by the activated oxidase. O2^- generation was determined by a continuous assay in which superoxide dismutase-inhibitable cytochrome c reduction was followed with time at 25° C. in a double-beam spectrophotometer at 550 nm by a modification of the method described in Curnutte, et al., J. Biol. Chem. 262: 6450-6452 (1987). Assay mixtures contained (final concentration) 0.15 mM cytochrome c, 6.5 mM MgCl2, 87 mM KCl, 2.6 mM NaCl, 8.7 mM PIPES (pH 7.3), 0.27 mM ATP (Sigma), 0.33 mM EGTA, 0.16 mM NADPH, and 0.04 mM SDS, plus 0.9×10^7 cell eq of cytosol and 1.55×10^6 cell eq of membranes solubilized in deoxycholate (0.94 mM) in 375 μl. The reference cuvette also received 22.5 μg of superoxide dismutase. All components except NADPH were mixed in the cuvette and allowed to stand for 3.5 minutes to allow activation of the oxidase by SDS. Reactions were then started with NADPH and followed at 550 nm on a Uvikon 810 dual-beam recording spectrophotometer (Kontron, Zurich). Data were collected on a strip chart recorder and the maximal velocity of the reaction, which occurred during the first 20 sec, was used to calculate the oxidase activity.
# A modification of the above-noted method was used for most of the studies described herein and may be summarized as follows. Reaction mixtures (generally, in 96-well microtiter plates) typically contain 0.1 mM cytochrome c, 6.5 mM MgCl2, 87 mM KCl, 2.6 mM NaCl, 8.7 mM PIPES (pH 7.3), 10 μM GTPγS, 0.16 mM NADPH, and 4×10^5 cell equivalents (cell eq) of neutrophil membranes (about 1.6 μg protein), in a total volume of 150 μl. In addition, reactions contain varying amounts of recombinant LMWG protein, and either (1) 8 μl (7.2×10^5 cell eq.; about 18 μg protein) of neutrophil cytosol, or (2) 100 nM each of baculovirus recombinant p47-phox and p67-phox as specified herein. Control wells (paired with each reaction well) contained 9 μg SOD, to account for non-O2^- -dependent reduction of cytochrome c. Superoxide production is initiated by the addition of SDS to give a final concentration of either 90 μM (with recombinant p47-phox/p67-phox) or 110 μM (with neutrophil cytosol). Maximum rates of absorbance change, calculated from the first derivative of the time course using Softmax software (Molecular Devices, release 2.01, Menlo Park, Calif., were converted to nmol O2^- generated/min/10^7 cell eq of membrane, after subtracting the rate achieved in the presence of SOD from that obtained in its absence, to give the rate of O2^- -dependent cytochrome c reduction, by using an extinction coefficient of 20.5 mM^-1 cm^-1 for reduced minus oxidized cytochrome c, a value determined experimentally for the 550±1-nm filter used in the kinetic microplate reader and the path length of the 250-μl reaction mixture. (See, e.g., Curnutte, et al., PNAS USA 86: 825-829 (1989).
# Peptides were tested for oxidase inhibiting activity using the cell-free assay of Curnutte, et al. (PNAS USA 86: 825-829 (1989)). Peptides were added at indicated concentrations and incubated for five minutes at room temperature prior to initiation of O2^- formation using either 90 μM SDS or 100 μM arachidonic acid as an activating stimulus.
# [2] = target: T2, Rap1A (Homo sapiens, UniProt P62834); assay: guanine nucleotide (GDP/GTP) exchange; assay type: biochemical
# T2 construct: Recombinant full length Rap1a, H-Ras, and CDC42Hs were purified after expression in a baculovirus/Sf9 insect cell system; made in house; host or cells: baculovirus/Sf9 insect cells
# T2 sequence (P62834 1-184): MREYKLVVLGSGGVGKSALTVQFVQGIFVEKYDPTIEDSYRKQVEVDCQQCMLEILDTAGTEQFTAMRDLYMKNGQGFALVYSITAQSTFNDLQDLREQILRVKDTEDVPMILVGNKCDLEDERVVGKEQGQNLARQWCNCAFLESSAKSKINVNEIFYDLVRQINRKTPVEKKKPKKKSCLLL
# [3] = target: Rac2 protein (Homo sapiens, UniProt P15153); assay: guanine nucleotide (GDP/GTP) exchange; assay type: biochemical; conditions: FIG. 4
# [4] = tested on: NADPH oxidase; assay: cell-free NADPH oxidase assay with GAP proteins; assay type: biochemical, human
# Protocol: Subcellular fractions from human neutrophils for use in cell-free NADPH oxidase assays were prepared as described previously (Curnutte, et al., PNAS USA 86: 825-829 (1989)). Cell-free oxidase assays were conducted as described in Heyworth, et al., Mol. Biol. Cell 4: 261-269 (1993) and Curnutte, et al., Id. (1989). In order to deplete endogenous guanine nucleotides for some experiments, cytosol was dialyzed overnight against three 2-liter volumes of 100 mM KCl/3 mM NaCl/3.5 mM MgCl2 /10 mM PIPES, pH 7.3, as previously described (Peveri, et al., PNAS USA 89: 2494-2498 (1992)). Reaction mixtures contained 4×10^5 cell equivalents (cell eq) of human neutrophil membranes and 1.8×10^6cell eq of neutrophil cytosol. Reactions were performed in the absence of GTPγS, unless otherwise indicated (see FIGS. 3, 7, 8, and 9, and accompanying legends), and with the indicated concentrations of p190 GAP. Rates of O2^- production were calculated from maximum rates of absorbance change after initiation of the reaction with 110 μM SDS.
# T1 sequence (P04839 2-570 limits assumed): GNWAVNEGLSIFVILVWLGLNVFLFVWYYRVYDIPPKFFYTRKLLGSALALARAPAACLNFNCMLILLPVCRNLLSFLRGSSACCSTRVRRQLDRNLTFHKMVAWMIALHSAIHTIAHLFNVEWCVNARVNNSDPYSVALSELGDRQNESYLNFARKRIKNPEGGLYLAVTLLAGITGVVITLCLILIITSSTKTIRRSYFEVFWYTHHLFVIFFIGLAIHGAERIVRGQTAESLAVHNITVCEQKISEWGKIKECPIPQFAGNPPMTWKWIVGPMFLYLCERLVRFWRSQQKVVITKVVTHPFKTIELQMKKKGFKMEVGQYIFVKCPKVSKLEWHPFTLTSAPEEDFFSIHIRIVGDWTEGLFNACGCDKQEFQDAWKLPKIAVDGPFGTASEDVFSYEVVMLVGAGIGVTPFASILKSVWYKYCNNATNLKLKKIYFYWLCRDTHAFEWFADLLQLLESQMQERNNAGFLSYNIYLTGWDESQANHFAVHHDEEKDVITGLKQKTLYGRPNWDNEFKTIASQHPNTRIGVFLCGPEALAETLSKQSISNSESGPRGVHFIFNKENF
# T1 sequence (P13498 2-195 limits assumed): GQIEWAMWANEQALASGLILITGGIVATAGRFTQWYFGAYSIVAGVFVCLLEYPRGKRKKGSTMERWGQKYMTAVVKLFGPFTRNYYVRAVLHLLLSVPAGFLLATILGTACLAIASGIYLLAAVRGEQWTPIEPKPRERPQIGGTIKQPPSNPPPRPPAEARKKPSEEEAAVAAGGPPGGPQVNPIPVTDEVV
# T1 sequence (P14598 whole entry): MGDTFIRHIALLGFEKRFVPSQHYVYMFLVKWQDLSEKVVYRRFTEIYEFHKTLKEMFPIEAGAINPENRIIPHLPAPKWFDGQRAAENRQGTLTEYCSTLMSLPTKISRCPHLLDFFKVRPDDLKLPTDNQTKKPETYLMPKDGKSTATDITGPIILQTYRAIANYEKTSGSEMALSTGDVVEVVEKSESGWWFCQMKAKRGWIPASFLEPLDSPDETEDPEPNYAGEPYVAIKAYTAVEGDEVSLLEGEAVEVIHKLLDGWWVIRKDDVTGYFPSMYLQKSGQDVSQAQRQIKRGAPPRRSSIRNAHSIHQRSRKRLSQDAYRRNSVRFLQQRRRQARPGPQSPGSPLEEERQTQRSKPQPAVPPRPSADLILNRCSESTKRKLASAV
# T1 sequence (P19878 whole entry): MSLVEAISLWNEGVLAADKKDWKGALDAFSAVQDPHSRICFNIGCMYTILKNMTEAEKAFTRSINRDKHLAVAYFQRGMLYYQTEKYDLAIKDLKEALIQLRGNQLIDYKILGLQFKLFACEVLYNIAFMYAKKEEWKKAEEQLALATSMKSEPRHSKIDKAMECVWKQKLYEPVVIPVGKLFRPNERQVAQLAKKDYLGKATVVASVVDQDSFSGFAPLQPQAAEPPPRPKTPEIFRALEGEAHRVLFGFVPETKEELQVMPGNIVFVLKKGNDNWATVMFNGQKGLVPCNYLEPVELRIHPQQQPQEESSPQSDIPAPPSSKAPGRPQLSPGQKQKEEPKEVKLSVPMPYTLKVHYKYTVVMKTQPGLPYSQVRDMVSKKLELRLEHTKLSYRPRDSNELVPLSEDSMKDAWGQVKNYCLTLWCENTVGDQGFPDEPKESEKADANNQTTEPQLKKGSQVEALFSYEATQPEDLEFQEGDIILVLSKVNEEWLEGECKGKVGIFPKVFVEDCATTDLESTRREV
molecule,measurement,setting,value
"CPPPVKKRKRK [Rac1 aa178-188, CPPPVKKRKRK]",Inhibitory Activity,[1],Active
"LTQRGLKTVFDE [Rac1 aa161-172, LTQRGLKTVFDE]",Inhibitory Activity,[1],Inactive
"GEHAQKHEQALQKLA [ECG 163, GEHAQKHEQALQKLA, reference compound]",Percent Inhibition,[1]; 100 μg/ml peptide,8.0%
same,Percent Inhibition,[1]; 200 μg/ml peptide,5.1%
same,Inhibitory Activity,[1],Inactive
INLKALAALAKKIL-NH2 [Mastoparan],"inhibition of NADPH oxidase activity, in words","[1]; FIG. 1, dose/response conditions",most dramatic
same,Inhibitory Activity,[1],Active
same,GDP/GTP exchange on Rap1A,[2],stimulate GDP/GTP exchange
same,GDP/GTP exchange on Rac,[3],stimulate GDP/GTP exchange
"CPQPTRQQKRA [Rac2 aa178-188, CPQPTRQQKRA]",Inhibitory Activity,[1],Active
KNVFDEAILAALEPPEPKKSRR [CDC42Hs],Inhibitory Activity,[1],Inactive
GTPγS-bound form of RhoA: recombinant Sf9 cell RhoA bound to GTPγS,reversal of p190 GAP inhibition of NADPH oxidase by added GTP-binding protein,"[4]; 280 nM p190 GAP, Rac1.GTPγS 30 nM, RhoA.GTPγS 100 nM, Rac2 (Q61L) 10 nM, FIG. 8",did not reverse inhibition
"TISSLFSRLFGKKQ [ARF 27, TISSLFSRLFGKKQ]",Percent Inhibition,[1]; 27 μg/ml peptide,55.9%
same,Percent Inhibition,[1]; 100 μg/ml peptide,91.3%
"c1ccc2c(c1)[I+]c1ccccc1-2 [diphenylene iodonium, reference compound]",inhibition of O2- formation when added after initiation with SDS,"[4]; added 1.7 or 5 minutes after SDS, p190 GAP 350 nM, DPI 1 μM, FIG. 9",could be inhibited
"SKFEDLNKRKDT [Gi #2, SKFEDLNKRKDT, reference compound]",Inhibitory Activity,[1],Inactive
"SSLFSRLFGKKQ [ARF 28, SSLFSRLFGKKQ]",Percent Inhibition,[1]; 27 μg/ml peptide,43.5%
same,Percent Inhibition,[1]; 100 μg/ml peptide,87.6%
"EKKKPKKKS [Rap1A aa172-180, EKKKPKKKS]",Inhibitory Activity,[1],Active
"GLAQKLLEALQKALLA [ICS4, GLAQKLLEALQKALLA]",Percent Inhibition,[1]; 27 μg/ml peptide,86.8%
same,Percent Inhibition,[1]; 100 μg/ml peptide,99.8%
same,Inhibitory Activity,[1],Active
"EKLKEKKLTPI [Rac1 aa127-137, EKLKEKKLTPI]",Inhibitory Activity,[1],Inactive
"GELAQKLEQALQKLA [ECG 125, GELAQKLEQALQKLA, reference compound]",Percent Inhibition,[1]; 100 μg/ml peptide,23.3%
same,Percent Inhibition,[1]; 200 μg/ml peptide,34.0%
same,Inhibitory Activity,[1],Inactive
"MGCTVSAEDKAAAER [Gi #5, MGCTVSAEDKAAAER, reference compound]",Inhibitory Activity,[1],Inactive
"GLTISSLFSRLFGKKQ [ARF 26, GLTISSLFSRLFGKKQ]",Percent Inhibition,[1]; 27 μg/ml peptide,30.9%
same,Percent Inhibition,[1]; 100 μg/ml peptide,100%
"PGKARKKSS [Rap1B aa172-180, PGKARKKSS]",Inhibitory Activity,[1],Active
